Like-named read-outs stand apart in the source and are kept apart here.
How the values were obtained:
[1] = test system: Green Peach Aphid (Myzus Persicae); assay: Insecticidal test for green peach aphid in foliar spray assay (col. MYZUPE); format: in vivo; conditions: Myzus persicae, 72 h, read-out: MYZUPE 200 ppm (Corrected % Control, rating)
Method: (§1) The compounds were tested against cotton aphid, green peach aphid, and sweet potato whitefly using procedures described in the following examples and reported in Table 2.
(§2) In each case of Table 2, the rating scale is as follows at 200 ppm.
Insecticidal Test for Green Peach Aphid (Myzus Persicae) in Foliar Spray Assay
Cabbage seedlings grown in 3-inch pots, with 2-3 small (3-5 cm) true leaves, were used as test substrate. The seedlings were infested with 20-50 green peach aphids (wingless adult and nymph) one day prior to chemical application. Four pots with individual seedlings were used for each treatment. Compounds (2 mg) were dissolved in 2 mL of acetone/methanol (1:1) solvent, forming stock solutions of 1000 ppm. The stock solutions were diluted 5× with 0.025% Tween 20 in H2O to obtain a test solution at 200 ppm. A hand-held Devilbiss sprayer was used for spraying a solution to both sides of cabbage leaves until runoff. Reference plants (solvent check) were sprayed with the diluent only. Treated plants were held in a holding room for three days at approximately 25° C. and 40% relative humidity (RH) prior to grading. Evaluation was conducted by counting the number of live aphids per plant under a microscope. Corrected % Control=100*(X−Y)/X • where X=No. of live aphids on solvent check plants • Y=No. of live aphids on treated plants

[2] = test system: Sweetpotato Whitefly-Crawler (Bemisia Tabaci); assay: Insecticidal test for sweetpotato whitefly-crawler in foliar spray assay (col. BEMITA); format: in vivo; conditions: for pest or weed control at 200 ppm: Bemisia tabaci, read-out: BEMITA 200 ppm (Corrected % Control, rating)
Method: as §1, §2
Insecticidal Test for Sweetpotato Whitefly-Crawler (Bemisia Tabaci) in Foliar Spray Assay
Cotton plants grown in 3-inch pots, with 1 small (3-5 cm) true leaf, were used as test substrate. The plants were placed in a room with whitefly adults. Adults were allowed to deposit eggs for 2-3 days. After a 2-3 day egg-laying period, plants were taken from the adult whitefly room. Adults were blown off leaves using a hand-held Devilbiss sprayer (23 psi). Plants with egg infestation (100-300 eggs per plant) were placed in a holding room for 5-6 days at 82° F. and 50% RH for egg hatch and crawler stage to develop. Four cotton plants were used for each treatment. Compounds (2 mg) were dissolved in 1 mL of acetone solvent, forming stock solutions of 2000 ppm. The stock solutions were diluted 10× with 0.025% Tween 20 in H2O to obtain a test solution at 200 ppm. A hand-held Devilbiss sprayer was used for spraying a solution to both sides of cotton leaf until runoff. Reference plants (solvent check) were sprayed with the diluent only. Treated plants were held in a holding room for 8-9 days at approximately 82° F. and 50% RH prior to grading. Evaluation was conducted by counting the number of live nymphs per plant under a microscope. Insecticidal activity was measured by using Abbott's correction formula and presented in Table 2 (see col. “BEMITA”): Corrected % Control=100*(X−Y)/X • where X=No. of live nymphs on solvent check plants • Y=No. of live nymphs on treated plants Pesticidally Acceptable Acid Addition Salts, Salt Derivatives, Solvates, Ester Derivatives, Polymorphs, Isotopes and Radionuclides

Row | SMILES | pest or weed control at 200 ppm ([1]; green peach aphid) [%] | pest or weed control at 200 ppm ([2]; sweetpotato whitefly-crawler) [%] | pest or weed control at 200 ppm ([1]; Abbott's correction formula) [%] | pest or weed control at 200 ppm ([2]; Abbott's correction formula) [%] | BEMITA 200 ppm (Corrected % Control, rating) ([2]; sweetpotato whitefly-crawler)
1 | CCO[C@@H]1[C@@H](OC)[C@H](C)OC(OC(=O)Nc2sc(-c3cccnc3)nc2C)[C@@H]1OC (mixture of isomers) [Compound 182] | 80 to 100 | < 80 |  |  | 
2 | CS[C@H]1CC1C(=O)N(C)c1sc(-c2cncc(F)c2)nc1Cl (mixture of isomers) [Compound 445] |  |  | 80 to 100 | 80 to 100 | 
3 | CCN(C(=O)C1C[C@@H]1SC)c1sc(-c2cncc(F)c2)nc1Cl (mixture of isomers) [Compound 448] |  |  | 80 to 100 | 80 to 100 | 
4 | CN(C(=O)C(F)(F)F)c1cnc(-c2cncc(F)c2)s1 [Compound 1, 2,2,2-trifluoro-N-[2-(5-fluoropyridin-3-yl)-thiazol-5-yl]-N-methyl-acetamide] | < 80 | 80 to 100 |  |  | 
5 | CN(C(=O)C(F)(F)F)c1cnc(-c2cccnc2)s1 [Compound 2, 2,2,2-Trifluoro-N-methyl-N-(2-pyridin-3-yl-thiazol-5-yl)-acetamide] | < 80 | < 80 |  |  | 
6 | CCc1nc(-c2cccnc2)sc1N(C)C(=O)C(F)(F)F [Compound 3, N-(4-Ethyl-2-pyridin-3-yl-thiazol-5-yl)-2,2,2-trifluoro-N-methyl-acetamide] | < 80 | < 80 |  |  | 
7 | CN(C(=O)C(F)(F)F)c1sc(-c2cccnc2)nc1-c1ccccc1 [Compound 4, 2,2,2-Trifluoro-N-methyl-N-(4-phenyl-2-pyridin-3-yl-thiazol-5-yl)-acetamide] | < 80 | < 80 |  |  | 
8 | CN(C(=O)C(F)(F)F)c1sc(-c2cccnc2)nc1Cl [Compound 6, N-(4-Chloro-2-pyridin-3-yl-thiazol-5-yl)-2,2,2-trifluoro-N-methyl-acetamide] | < 80 | < 80 |  |  | 
9 | CC(C)(C)OC(=O)Nc1sc(-c2cccnc2)nc1C(F)(F)F [Compound 7, (2-pyridin-3-yl-4-trifluoromethyl-thiazol-5-yl)-carbamic acid tert-butyl ester] | < 80 | < 80 |  |  | 
10 | Cc1nc(-c2cncnc2)sc1NC(=O)OC(C)(C)C [Compound 8, (4-Methyl-2-pyrimidin-5-yl-thiazol-5-yl)-carbamic acid tert-butyl ester] | 80 to 100 |  |  |  | 
11 | Cc1nc(-c2cccnc2)sc1NC(=O)OC(C)(C)C [Compound 9, (4-Methyl-2-pyridin-3-yl-thiazol-5-yl)-carbamic acid tert-butyl ester] | 80 to 100 | 80 to 100 |  |  | 
12 | CN(C(=O)OC(C)(C)C)c1sc(-c2cccnc2)nc1C(F)(F)F [Compound 10, methyl-(2-pyridin-3-yl-4-trifluoromethyl-thiazol-5-yl)carbamic acid tert-butyl ester] | < 80 | 80 to 100 |  |  | 
13 | Cc1nc(-c2cncnc2)sc1N(C)C(=O)OC(C)(C)C [Compound 11, Methyl-(4-methyl-2-pyrimidin-5-yl-thiazol-5-yl)-carbamic acid tert-butyl ester] | < 80 |  |  |  | 
14 | CCN(C(=O)OC(C)(C)C)c1sc(-c2cccnc2)nc1C [Compound 12, Ethyl-(4-methyl-2-pyridin-3-yl-thiazol-5-yl)-carbamic acid tert-butyl ester] | 80 to 100 | 80 to 100 |  |  | 
15 | Cc1nc(-c2cccnc2)sc1N(C(=O)OC(C)(C)C)C(C)C [Compound 13, Isopropyl-(4-methyl-2-pyridin-3-yl-thiazol-5-yl)-carbamic acid tert-butyl ester] | 80 to 100 | 80 to 100 |  |  | 
16 | Cc1nc(-c2cccnc2)sc1N(CC(C)C)C(=O)OC(C)(C)C [Compound 14, Isobutyl-(4-methyl-2-pyridin-3-yl-thiazol-5-yl)-carbamic acid tert-butyl ester] | < 80 | 80 to 100 |  |  | 
17 | Cc1nc(-c2cccnc2)sc1N(Cc1ccccc1)C(=O)OC(C)(C)C [Compound 15, Benzyl-(4-methyl-2-pyridin-3-yl-thiazol-5-yl)-carbamic acid tert-butyl ester] | 80 to 100 | 80 to 100 |  |  | 

Row | SMILES | pest or weed control at 200 ppm ([1]; green peach aphid) [%] | pest or weed control at 200 ppm ([2]; sweetpotato whitefly-crawler) [%] | pest or weed control at 200 ppm ([1]; Abbott's correction formula) [%] | pest or weed control at 200 ppm ([2]; Abbott's correction formula) [%] | BEMITA 200 ppm (Corrected % Control, rating) ([2]; sweetpotato whitefly-crawler)
18 | CN(C(=O)OC(C)(C)C)c1cnc(-c2ccc(Cl)nc2)s1 [Compound 16, [2-(6-chloropyridin-3-yl)-thiazol-5-yl]-methyl-carbamic acid tert-butyl ester] | < 80 | 80 to 100 |  |  | 
19 | CSCC(C)C(=O)Nc1sc(-c2cncc(Cl)c2)nc1C (centres unmarked) [Compound 17, N-[2-(5-chloropyridin-3-yl)-4-methyl-thiazol-5-yl]-2-methyl-3-methylsulfanyl-propionamide] | 80 to 100 | 80 to 100 |  |  | 
20 | CSCC(C)(C)C(=O)N(C)c1cnc(-c2cncc(F)c2)s1 [Compound 18, N-[2-(5-fluoropyridin-3-yl)-thiazol-5-yl]-2,2,N-trimethyl-3-methylsulfanyl-propionamide] | 80 to 100 | 80 to 100 |  |  | 
21 | CSCC(C)(C)C(=O)Nc1sc(-c2ccc(F)nc2)nc1C [Compound 20, N-[2-(6-fluoropyridin-3-yl)-4-methyl-thiazol-5-yl]-2,2-dimethyl-3-methylsulfanyl-propionamide] | 80 to 100 | 80 to 100 |  |  | 
22 | Cc1nc(-c2cccnc2)sc1N(C(=O)C(C)C)C(=O)C(C)C [Compound 21, N-isobutyryl-N-(4-methyl-2-pyridin-3-yl-thiazol-5-yl)-isobutyramide] | 80 to 100 | 80 to 100 |  |  | 
23 | CSCCC(=O)N(C)c1sc(-c2cccnc2)nc1C [Compound 35] | 80 to 100 | 80 to 100 |  |  | 
24 | CSCC(C)C(=O)N(C)c1sc(-c2cccnc2)nc1C (centres unmarked) [Compound 36] | 80 to 100 | 80 to 100 |  |  | 
25 | Cc1nc(-c2cccnc2)sc1N(C)C(=O)C(C)C [Compound 37] | 80 to 100 | 80 to 100 |  |  | 
26 | CSCCC(=O)N(C)c1sc(-c2cncc(F)c2)nc1C [Compound 38] | 80 to 100 | 80 to 100 |  |  | 
27 | CSCC(C)(C)C(=O)N(C)c1sc(-c2cncc(F)c2)nc1C [Compound 39] | 80 to 100 | 80 to 100 |  |  | 
28 | CSCC(C)C(=O)N(C)c1sc(-c2cncc(F)c2)nc1C (centres unmarked) [Compound 40] | 80 to 100 | 80 to 100 |  |  | 
29 | CSCCC(=O)N(C)c1sc(-c2cccnc2)nc1C(F)(F)F [Compound 43] | 80 to 100 | 80 to 100 |  |  | 
30 | CSCC(C)C(=O)N(C)c1sc(-c2cccnc2)nc1C(F)(F)F (centres unmarked) [Compound 44] | 80 to 100 | 80 to 100 |  |  | 
31 | Cc1nc(-c2cccnc2)sc1N(C)C(=O)[C@@H](COCc1ccccc1)NC(=O)OC(C)(C)C [Compound 310] | < 80 |  |  |  | 
32 | Cc1nc(-c2cccnc2)sc1N(C)C(=O)C(NC(=O)OC(C)(C)C)C(C)C (centres unmarked) [Compound 311] | 80 to 100 |  |  |  | 
33 | Cc1nc(-c2cccnc2)sc1N(C)C(=O)C1CCN1C(=O)OC(C)(C)C (centres unmarked) [Compound 338] |  |  |  |  | A (80-100)
34 | CSCC(C)C(=O)N(C)c1sc(-c2cnc(Cl)c(F)c2)nc1Cl (centres unmarked) [Compound 473] |  |  |  | < 80 | 

Reference: patent US8853246B2 (Dow AgroSciences LLC, priority 2009, dated 2014)
